Entries after “also recorded” stand apart in the source; their conditions may differ.
Legend:
[1] = tested on: HIV-1 infected ACH-2 cells; assay: Flow cytometry of genomic DNA 3'-ends (apoptosis), HIV-1 infected cells; type: cell-based, human; settings: for fragmentation of genomic DNA / number of DNA 3'-ends, ACH-2: FIG. 13
Experimental: FIGS. 13A-F show the flowcytometrically determined distribution of the number of fluorescently labeled 3'-ends in the genomic DNA of HIV-1 producing ACH-2 cells ("ACH-2") and their uninfected parent cell line CEM ("CEM"), both receiving no treatment ("NT") or treatment for 18 hours with either 200 μM mimosine ("MIM") or 200 μM HK-1 ("HK1"). […] This is the hallmark of irreversible auto-destruction of a cell's genetic library.
FIGS. 14A-H show the flowcytometrically determined distribution of the number of fluorescently labeled 3'-ends in the genomic DNA of HIV-1 producing ACH-2 cells ("ACH-2") and of their uninfected parent cell line CEM ("CEM"), both receiving no treatment ("NT") or treatment for 18 hours with 200 μM mimosine ("MIM"), followed by inhibitor withdrawal and reincubation in fresh medium for 2 hours.
ACH-2 cells were incubated with hypusine inhibitors (mimosine, HK-1) and induced with PMA as outlined in Example II A, except that the duration of exposure to inhibitor was extended to 18-21 hours and that cells were labeled as detailed in Example I B. Half of the cells were then harvested and processed for detection of apoptosis, while the other half was washed free of inhibitors and re-incubated in fresh medium for 2-4 hours, followed by harvesting and processing for detection of […] apoptosis. Using the same protocol, cultures of the parent CEM cell line were incubated in parallel. For assessment of apoptosis, cell viability was measured by exclusion of the dye trypan blue, by retention of the ^3 H-spermidine-derived intracellular radioactivity incorporated into the obligatory intracellular protein eIF-5A, and by direct fluorescence detection of the intemucleosomal degradation of genomic DNA. Such irreversible genome degradation signals the activation of pre-programmed suicide mechanisms within any cell, which is the hallmark of apoptosis, and inescapably results in cell death [Compton, Cancer Metast. 11, 105-119 (1992), which is hereby incorporated by reference]. For the latter method, a commercially available kit was used (Oncor, Gaithersburg, Md.). Flow cytometric analysis of apoptotic cells was performed in accord with standard procedures.

[2] = tested on: HIV-1 infected ACH-2 cells; assay: Cell membrane integrity (trypan blue exclusion, retention of labeled eIF-5A), HIV-1 infected cells; type: cell-based, human; settings: during 18-21 h incubation and 2-4 hours after withdrawal, FIGS. 12A and B
Experimental: FIGS. 12A and B show the loss of cell membrane integrity suffered by HIV-1 producing ACH-2 cells and their uninfected parent cell line CEM during incubation with and after withdrawal of mimosine and HK-1. The black bar indicates the duration of inhibitor exposure, the open bar the duration of inhibitor withdrawal. Cell membrane integrity was determined by the ability of the cells to exclude the low-molecular weight dye trypan blue (FIGS. 12A and B) and to retain the spermidine-derived radioactive label of a single, obligatory intracellular protein species, eIF-5A and its deoxyhypusyl precursor (FIG. 12A).
ACH-2 cells were incubated with hypusine inhibitors (mimosine, HK-1) and induced with PMA as outlined in Example II A, except that the duration of exposure to inhibitor was extended to 18-21 hours and that cells were labeled as detailed in Example I B. Half of the cells were then harvested and processed for detection of apoptosis, while the other half was washed free of inhibitors and re-incubated in fresh medium for 2-4 hours, followed by harvesting and processing for detection of […] apoptosis. Using the same protocol, cultures of the parent CEM cell line were incubated in parallel. […]

cellular protein TNF-α = assay: TNF-α biosynthesis and secretion (ELISA) in PMA-induced ACH-2 cells; type: cell-based, human; settings: 200 μM, PMA-induced ACH-2, FIG. 10
Deoxyhypusyl hydroxylase = target: T1, Deoxyhypusyl hydroxylase (Homo sapiens, UniProt Q9BU89); assay: Cellular deoxyhypusyl hydroxylase (hypusine formation) inhibition, human B-cells and human smooth muscle cells; type: cell-based; settings: for Deoxyhypusyl hydroxylase ID50 (cellular): concentration for half-maximal inhibition
T1 construct: endogenous in cells
T1 sequence (Q9BU89 1-302): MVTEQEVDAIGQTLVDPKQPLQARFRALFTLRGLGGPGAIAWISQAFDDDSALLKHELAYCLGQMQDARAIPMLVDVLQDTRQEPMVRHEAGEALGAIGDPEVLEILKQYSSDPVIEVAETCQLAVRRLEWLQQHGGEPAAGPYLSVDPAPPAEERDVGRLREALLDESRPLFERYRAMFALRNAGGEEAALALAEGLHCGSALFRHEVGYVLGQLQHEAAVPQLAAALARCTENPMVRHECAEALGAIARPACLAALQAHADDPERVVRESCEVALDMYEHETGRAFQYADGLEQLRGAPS
Experimental: The cell-free enzyme assay was performed to test a pilot peptidomimetic which can be equipped with hydroxypyridone warheads. The cell culture studies were performed to establish the inherent inhibitory potency of such hydroxypyridones.
DOHH Assay. The intracellular conversion of peptide-bound deoxyhypusine to peptidyl hypusine was determined after preincubation of human T lymphocyte-derived cells (i.e. ACH-2) [Clouse et al., J. Immunol. 142, 431-438 (1989), which is hereby incorporated by reference] with the hypusine inhibitors mimosine and HK-1 for 60 minutes, followed by labeling for 21 hours with ^3 H-spermidine (3.75 μCi/ml) in wells containing 3×10^6 cells suspended in 8 ml of serum-supplemented and antibiotic-containing RPMI 1640 medium. Cells were then split into two groups, one of them being harvested immediately to assess degree of DOHH inhibition, and the other harvested after transfer of the cells into inhibitor-free medium for 2 hours to measure resumption of DOHH activity. Harvesting consisted in precipitation of washed cells with 10% TCA containing 1 mM each of putrescine, spermidine, and spermine. Cellular proteins from each sample were then hydrolyzed in 6N HCl at 110° C. for 16 hours. The hydrolysate was analyzed for labeled amino acids on an amino acid analyzer by published methods [Park et al., J. Biol. Chem., 257, 7217-7222 (1982), which is hereby incorporated by reference]. The retention times of hypusine and deoxyhypusine were determined from standards. Similar studies were performed in human B-cells and human smooth muscle cells.
The concentration required for half-maximal inhibition (ID50) of the cellular enzyme activity is identified for each compound.

SMILES	fragmentation of genomic DNA / number of DNA 3'-ends, ACH-2 ([1]; 200 μM, 18 hours)	cell membrane integrity, HIV-1 producing ACH-2 [2]	TNF-α biosynthesis and secretion (cellular protein TNF-α)	Deoxyhypusyl hydroxylase ID50 (cellular) (Deoxyhypusyl hydroxylase)	DNA fragmentation after withdrawal, ACH-2 ([1]; 200 μM 18 hours, then 2 hours after withdrawal, FIG. 14)	second population (higher amount of 3'-ends) position, ACH-2 ([1]; 200 μM, 18 hours, FIG. 14) [channel]	average fluorescence peak position, ACH-2 ([1]; 200 μM, 18 hours, FIG. 14, control around channel 100) [channel]	inhibition of deoxyhypusyl hydroxylase activity, i.e. hypusine formation (Deoxyhypusyl hydroxylase)
Cc1c(O)c(=O)ccn1C [HK-1, 1,2-dimethyl-3-hydroxypyrid-4-one]	triggered fragmentation of the genomic DNA; also recorded: increase of the number of 3'-ends in their DNA	the most marked, uniform and rapid decline of membrane integrity developed 2-4 hours after inhibitor withdrawal	absence of such a suppressive effect	90				
N[C@@H](Cn1ccc(=O)c(O)c1)C(=O)O [L-Mimosine]	triggered fragmentation of the genomic DNA; also recorded: increase of the number of 3'-ends in their DNA	the most marked, uniform and rapid decline of membrane integrity developed 2-4 hours after inhibitor withdrawal	absence of such a suppressive effect	65	this population did not decrease, but rather became the predominant one; also recorded: Within the 2 hours of release, this shift increased markedly	~210	140	efficiently inhibit deoxyhypusyl hydroxylase activity
